Data taken from ChEMBL document CHEMBL1201862, “PubChem BioAssay data set” (2004).
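Dose response: 5 concentrations. Exposure: 48 h. Format: 96-well plates. Endpoint: linear interpolation; highest concentration if not reached. Abbreviation: GI50, concentration required for 50% inhibition of growth.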 The source made the active and inactive calls. Cut-off read from the data, not from the text of the source: active = GI50 up to about 1.1 µM and inactive = higher.

Legend:
Experiment in all cases: NCI tumour cell line growth inhibition, 48 h
[1] = tested on: 786-0
[2] = tested on: ACHN
[3] = tested on: CAKI-1
[4] = tested on: IGROV-1
[5] = tested on: KM12
[6] = tested on: MDA-MB-231
[7] = tested on: NCI-H226
[8] = tested on: NCI-H23
[9] = tested on: OVCAR-4
[10] = tested on: OVCAR-5
[11] = tested on: PC-3
[12] = tested on: RXF 393
[13] = tested on: SF-295
[14] = tested on: SK-MEL-2
[15] = tested on: SN12C
[16] = tested on: TK-10
[17] = tested on: HOP-92
[18] = tested on: RPMI-8226

Measured: GI50

C/C(=C\CO)CC/C=C(\C)CNc1ccc([N+](=O)[O-])cc1
inactive: [1] > 100 µM | [2] 80.4 µM | [3] 80.5 µM | [4] 28.8 µM | [5] 16.1 µM | [6] 26.2 µM | [7] 96.6 µM | [8] 2.57 µM | [9] 2.98 µM | [10] 41.7 µM | [11] 18 µM | [12] > 100 µM | [13] 32.5 µM | [14] 20.4 µM | [15] 60.8 µM | [16] 7.67 µM

COc1cc(C(=C2SCCS2)c2nccc3cc(OC)c(OC)cc23)c([N+](=O)[O-])cc1OC
inactive: [1] 59.3 µM | [2] 29.9 µM | [17] 8.71 µM | [4] > 100 µM | [5] 90.4 µM | [7] 80.4 µM | [8] 40.8 µM | [10] > 100 µM | [18] 20.8 µM | [12] > 100 µM | [13] 56 µM | [14] > 100 µM | [15] 48.9 µM | [16] > 100 µM

O=C(CCCN1CCC(O)(c2ccc(Cl)cc2)CC1)c1ccc(F)cc1 [HALOPERIDOL]
inactive: [1] 19.4 µM | [2] 39.4 µM | [3] 10.1 µM | [17] 48.2 µM | [4] 57.3 µM | [5] 18.6 µM | [6] 22 µM | [7] 32.2 µM | [8] 31 µM | [9] 85.7 µM | [10] 28.8 µM | [11] 70 µM | [18] 25.1 µM | [13] 15.6 µM | [14] 20.7 µM | [15] 37.7 µM | [16] 39.8 µM

C/C(=N\NC(N)=S)C(CN(CC(C)C)CC(C)C)C(=O)Nc1ccc(C)cc1C (centres undefined)
inactive: [1] > 100 µM | [2] > 100 µM | [3] > 100 µM | [17] > 100 µM | [4] > 100 µM | [5] > 100 µM | [7] > 100 µM | [8] > 100 µM | [9] > 100 µM | [10] > 100 µM | [12] > 100 µM | [13] > 100 µM | [14] > 100 µM | [15] > 100 µM | [16] > 100 µM

CC(=O)NC1C(OCc2ccccc2)OC(COC(=O)CCCCCCCCCCNc2ccc([N+](=O)[O-])c3[nH]c4ccccc4c(=O)c23)C(O)C1OC(C)C(=O)NC(C)C(=O)NC(CCC(N)=O)C(=O)OCc1ccccc1 (centres undefined)
inactive: [1] > 100 µM | [2] > 100 µM | [3] > 100 µM | [4] > 100 µM | [5] > 100 µM | [7] > 100 µM | [8] > 100 µM | [9] > 100 µM | [10] > 100 µM | [18] > 100 µM | [13] > 100 µM | [14] > 100 µM | [15] > 100 µM | [16] > 100 µM

CCCCCCCC(=O)OCC1OC(n2cc(F)c(=O)[nH]c2=O)C(N)C(O)C1O (centres undefined)
inactive: [1] > 100 µM | [2] > 100 µM | [3] > 100 µM | [17] > 100 µM | [4] > 100 µM | [5] > 100 µM | [7] > 100 µM | [8] > 100 µM | [9] > 100 µM | [10] > 100 µM | [18] > 100 µM | [12] > 100 µM | [13] > 100 µM | [14] > 100 µM | [15] > 100 µM

Cc1c2cc[n+](C)cc2c(C)c2c1[nH]c1ccc(OC(C)(C)C)cc12
inactive: [1] > 100 µM | [2] > 100 µM | [3] > 100 µM | [17] > 100 µM | [4] > 100 µM | [5] > 100 µM | [7] > 100 µM | [8] > 100 µM | [9] > 100 µM | [10] > 100 µM | [18] > 100 µM | [12] > 100 µM | [13] > 100 µM | [14] > 100 µM | [15] > 100 µM | [16] > 100 µM

C/C(=N\NC(=O)CC(=O)Nc1ccc(Cl)cc1)c1cc2ccccc2oc1=O
inactive: [1] > 100 µM | [2] > 100 µM | [4] > 100 µM | [5] > 100 µM | [7] > 100 µM | [8] > 100 µM | [18] > 100 µM | [12] > 100 µM | [13] > 100 µM | [15] > 100 µM | [16] > 100 µM

CCCN(CCCCC(NC(C)=O)C(=O)NCc1ccccc1)C(=O)N(C)N=O (centres undefined)
inactive: [1] > 100 µM | [2] > 100 µM | [3] > 100 µM | [17] > 100 µM | [4] > 100 µM | [5] > 100 µM | [7] > 100 µM | [8] > 100 µM | [9] > 100 µM | [10] > 100 µM | [18] > 100 µM | [12] > 100 µM | [13] > 100 µM | [14] > 100 µM | [15] > 100 µM | [16] > 100 µM
